These results are taken from patent US5681823A, “P^1, P^4 -dithio-P^2 -P^3 -monochloromethylene 5', 5'"-diadenosine P^1, P^4 -tetraphosphate as antithrombotic agent” (PRP Inc., priority 1996, dated 1997).

“Also recorded” adds a separate entry of the source. Where two headings read alike, the source gives them in different places.

What all share (type): cell-based, human
Assay [1] deals with ADP-induced platelet aggregation. As to the kind of experiment: ADP-induced platelet aggregation in platelet-rich plasma (turbidimetric method of Born, aggregometer). To be noted: for IC50: ADP-induced aggregation, PRP, mean of three (*) or two determinations. The procedure: (§1) Unless otherwise provided below, the experimental procedures were performed according to the procedures provided in U.S. Pat. No. 5,049.550 (Zamecnik '550), the entire contents of which are incorporated herein by reference. Some alternative procedures (e.g., release reaction, PF3 assays) and a number of additional studies also are provided (e.g., cytoplasmic calcium mobilization, fibrinogen binding site, agonists other than ADP, platelet cAMP and distribution of CHCl-AP4 A into blood components). Blood was collected in a 0.1 volume of 3.8% sodium citrate from healthy human volunteers who had abstained from antiplatelet agents for at least 10 days. Platelet rich plasma (PRP) was separated by a gradual centrifugation and adjusted to 3.3×10^8 platelets per ml plasma. PRP has been utilized in the Examples unless otherwise stated.
An initial screening was performed for inhibitory effects of several agents (including, e.g., thio-CHCl-AP4 A and CHCl-AP4 A as reference agent)) on platelet aggregation induced by ADP. Platelet aggregation was measured with platelet-rich plasma (PKP) by the turbidimetric method of Born (J. Physiol. 162:67, 1962) in an aggregometer (Chrono-log, Model 530 VS). Platelet aggregation induced by 5 μM ADP in the absence or presence of 5 μM agents was examined. […] The IC50 value of the CHCl-AP4 A (reference agent) was consistent with the value reported previously (P. Zamecnik et al., Proc. Nat'l. Acad. Sci. USA 89:2370-2373 (1992)).

Assay [2] relates to ADP and collagen induced platelet aggregation. Kind of assay: Platelet aggregation in lumiaggregometer (ADP or collagen). Particulars: for IC50: Homo sapiens, Platelet, lumiaggregometer. On the procedure:
(§2) The effects of thio-CHCl-AP4 A and the reference agent on both ADP and collagen induced platelet aggregation, and release reaction were tested in a lumiaggregometer. Normal human PRP was separated from sodium […] anticoagulated (0.38%) blood. Platelet aggregation and release reaction induced by 5 μM ADP or 1 μg collagen/ml. The lumiaggregometer was equipped to assay both platelet aggregation and the luciferase reaction of ATP simultaneously a) in the absence of agent (control); and b) in the presence of various concentrations of thio-CHCl-AP4 A or CHCl-AP4 A. The measured amount of ATP released from the activated platelets by the agonist represents the release reaction. The luminescence produced by the luciferin-luciferase reaction was linear with respect to the amount of ATP released.

The test system of assay [3] is Platelet release reaction. Kind of assay: Platelet release reaction (ATP, luciferin-luciferase, lumiaggregometer). Particulars: for IC50: Homo sapiens, Platelet, lumiaggregometer. On the procedure:
as §2

The test system of another assay is Platelet Factor 3 (PF3). Kind of assay: Platelet factor 3 (PF3) activation, Stypven clotting time. To be noted: for Clotting Time (Stypven), ADP-stimulated PF3 activity / Net Change of clotting time / activity at 10 µM: 10 μM agent, 10 μM ADP; for Clotting Time (Stypven), ADP-stimulated PF3 activity: mean of two, baseline 45.8, saline control 38.9; for Net Change of clotting time: saline control -6.9; for activity at 10 µM: Homo sapiens, Platelet, 5 min, saline control 100, read-out: % Change of clotting time. The procedure:
PF3 activity of the platelets is enhanced by ADP stimulation and measured by the Stypven clotting time (P. Zamecnik et al., PNAS (USA) 89:2370-2373 (1992)). The data represent a mean of two experiments. Fresh normal human platelet-rich plasma (3×10^8 platelets per ml) was preincubated in the presence or absence of the agents (10 μM) at 37° C. for 5 min and then tested for PF3 activity of the platelets that was stimulated by 10 μM ADP.

Another assay deals with platelet cAMP level. As to the kind of experiment: Level of intracellular platelet cAMP (etheno-cAMP, HPLC). Particulars: for platelet cAMP level: 37° C., 5 min, control 31.6; for effect on the platelet cAMP level: in words. On the procedure: as §1
The inhibitory effect of cAMP on platelet aggregation has been known as a counteraction of calcium ion mobilization. Accordingly, the inhibitory effects of the agents with respect to a cAMP mediated mechanism was tested. PRP was incubated with saline (control), agents (at 20 μM and 100 μM), or forskolin (10 μM) at 37° C. for 5 min. After incubation, extracts were made using Ba(OH)2 and ZnSO4. Cyclic AMP in the extracts was converted into the etheno-cAMP derivative, and the levels were estimated by HPLC using a fluorescence detector (W. Wojcik et al., J. Cyclic Nucleotide Res. 7:27-35 (1981)). The level of cAMP in an unknown extract was determined by extrapolation from a standard graph. A linear relationship between the cAMP level in the extracted samples and fluorescence detection was observed. […] However, this increase may not be a specific effect. Although adenosine contamination in the tested AP4 A agents was not detected, it is possible that either cellular adenosine nucleotide metabolic products or contaminated adenosine in the tested agents may be responsible for the elevated cAMP level.

A further assay deals with platelet aggregation. As to the kind of experiment: Platelet aggregation induced by ADP and agonists other than ADP. To be noted: for IC50: Homo sapiens, Platelet; for effect on collagen-induced aggregation: agonist collagen, in words; for effect on ristocetin-induced platelet aggregation: agonist ristocetin; for effect on thrombin-induced platelet aggregation: agonist thrombin. The procedure: as §1
The release reaction appears to be a unique response following platelet activation. ADP, among several platelet constituents, appears to play an important role in the enhancement of activation. We have examined the role of ADP that is released in platelet aggregation induced by other agonists including arachidonic acid, collagen, epinephrine, thrombin and ristocetin. Platelet aggregability induced by a given concentration of agonists was approximately 60-80% in absence of agents. […] This finding supports the above-described observations of the inhibitory effects of the agents on the release reaction.

The test system of assay [4] is ADP-induced platelet aggregability. Kind of assay: Ability to aggregate of platelets exposed previously to the agents, resuspended in inhibitor-free plasma. Particulars: for activity at 25 µM: preincubated 25 μM agent. The procedure:
as §1
We believe that the inhibition mechanism of AP4 A analogues involves competing with ADP for binding to the platelet purinoceptor. To test the stability and inhibitory effects of the bound agent, platelet-rich plasma anticoagulated with ACD solution was preincubated with 25 μM thio-CHCl-AP4 A or 50 μM CHCl-AP4 A at 22° C. for 30 minutes. Platelets isolated by gel-column filtration (2×10^8 cells/ml) or centrifugation (3×10^8cells/ml) were resuspended in the inhibitor-free plasma and ADP-induced aggregability was measured. The values represent a mean of three experiments for the series of gel-filtration separation and a mean of two experiments for the centrifugation separation.

Where [5] appears, read: agonist Arachidonic Acid (1 mM).

Consider `Nc1ncnc2c1ncn2[C@@H]1O[C@H](COP(=O)(O)OP(=O)(O)C(Cl)P(=O)(O)OP(=O)(O)OC[C@H]2O[C@@H](n3cnc4c(N)ncnc43)[C@H](O)[C@@H]2O)[C@@H](O)[C@H]1O` (some centres unmarked) [CHCl-AP4 A], for which the IC50 is 3.28 µM in assay [1]; 14 µM in assay [2] (agonist 5 μM ADP); more than 100 µM in assay [2] (agonist collagen 1 μg/ml); 4.5 µM in assay [3] (agonist 5 μM ADP); 35 µM in assay [3] (agonist collagen 1 μg/ml); 3.28 µM with platelet aggregation (agonist ADP (5 μM)). Moreover, the IC50 in the assay with platelet aggregation (setting [5]) was 19 µM; in the assay with platelet aggregation (agonist Collagen (μg)), more than 100 µM; in the assay with platelet aggregation (agonist Epinephrine (10 μM)), 24 µM. Also, the “effect on collagen-induced aggregation” value in assay [2] (agonist collagen, in words) was “not inhibited”; with platelet aggregation, “unaffected”. For the same compound, the “effect on collagen-induced release reaction” value in assay [3] (agonist collagen, in words) is “inhibited”. In the assay with Platelet Factor 3 (PF3), the “Clotting Time (Stypven), ADP-stimulated PF3 activity” value amounted to 43.1 s. The “Net Change of clotting time” value in the assay on Platelet Factor 3 (PF3) was -2.7. Further, the activity at 10 µM in the assay on Platelet Factor 3 (PF3) came out at 39.1%. For the same compound, the “platelet cAMP level” value in the assay with platelet cAMP level (20 μM agent) came to 30.6 nM; with platelet cAMP level (100 μM agent), 56.7 nM. The “effect on the platelet cAMP level” value is listed as “no effect” in the assay with platelet cAMP level (20 μM) and “moderate increase” in the assay on platelet cAMP level (100 μM). Besides, the “effect on ristocetin-induced platelet aggregation” value in the assay with platelet aggregation was “Neither thio-CHCl-AP4 A nor CHCl-AP4 A affected”. In the assay on platelet aggregation, the “effect on thrombin-induced platelet aggregation” value is recorded as “Neither thio-CHCl-AP4 A nor CHCl-AP4 A affected”. The activity at 50 µM in assay [4] (Homo sapiens, Platelet, 0.5 h, centrifugation, 20 μM ADP, preincubated 50 μM agent, 22° C., 30 min, mean of two, read-out: Aggregability (% of control)) was determined as 92%. For the same compound, the “inhibition in the ability to aggregate following exposure to ADP” value in assay [4] (preincubated 50 μM CHCl-AP4 A) is on record as 8%.

As for `Nc1ncnc2c1ncn2[C@@H]1O[C@H](COP(O)(=S)OP(=O)(O)C(Cl)P(=O)(O)OP(O)(=S)OC[C@H]2O[C@@H](n3cnc4c(N)ncnc43)[C@H](O)[C@@H]2O)[C@@H](O)[C@H]1O` (some centres unmarked) [Thio-CHCl-AP4 A, P^1, P^4 -dithio -P^2 -P^3 monochloromethylene 5', 5'" diadenosine P^1, P^4 -tetraphosphate], the IC50 was determined as 0.81 µM in assay [1]; 1.6 µM in assay [2] (agonist 5 μM ADP); 9 µM in assay [2] (agonist collagen 1 μg/ml); 0.7 µM in assay [3] (agonist 5 μM ADP); 1.7 µM in assay [3] (agonist collagen 1 μg/ml); 0.81 µM in the assay on platelet aggregation (agonist ADP (5 μM)). In addition, the IC50 was 9.12 µM with platelet aggregation (setting [5]), 9 µM in the assay with platelet aggregation (agonist Collagen (μg)) and 5.25 µM in the assay with platelet aggregation (agonist Epinephrine (10 μM)). In addition, the “in vitro platelet aggregation inhibitory activity relative to AP4 A and analogs” value in assay [1] (compared to AP4 A, known analogs, non-thio counterpart, in words, listed as Aps pCHClpps A) is “nearly an order of magnitude greater than the inhibitory activity of naturally-occurring AP4 A; also recorded: significantly greater than the activities of known AP4 A analogs; also recorded: significantly greater platelet aggregation inhibitory activity than that of its corresponding non-thio counterpart”. The “Clotting Time (Stypven), ADP-stimulated PF3 activity” value with Platelet Factor 3 (PF3) came out at 44.5 s. For the same compound, in the assay with Platelet Factor 3 (PF3), the “Net Change of clotting time” value was -1.3. Moreover, the activity at 10 µM in the assay on Platelet Factor 3 (PF3) was found to be 18.8%. The “inhibitory effect on ADP-stimulated PF3 activity” value with Platelet Factor 3 (PF3) (compared to CHCl-AP4 A, in words) was “significantly greater than that of the non-thio reference agent”. For the same compound, the “platelet cAMP level” value in the assay with platelet cAMP level (20 μM agent) is reported as 28.6 nM; in the assay with platelet cAMP level (100 μM agent) it was 54.4 nM. Also, the “effect on the platelet cAMP level” value with platelet cAMP level (20 μM) was “no effect”; in the assay with platelet cAMP level (100 μM), “moderate increase”. The “effect on collagen-induced aggregation” value with platelet aggregation is listed as “detectable inhibitory effect”. Moreover, the “effect on ristocetin-induced platelet aggregation” value in the assay on platelet aggregation is “Neither thio-CHCl-AP4 A nor CHCl-AP4 A affected”. The “effect on thrombin-induced platelet aggregation” value with platelet aggregation is “Neither thio-CHCl-AP4 A nor CHCl-AP4 A affected”. Moreover, the activity at 25 µM in assay [4] (Homo sapiens, Platelet, 0.5 h, centrifugation, 20 μM ADP, 22° C., 30 min, mean of two, read-out: Aggregability (% of control)) worked out at 67%; in assay [4] (Homo sapiens, Platelet, 0.5 h, gel-filtration, 10 μM ADP, 22° C., 30 min, mean of three, read-out: Aggregability (% of control)), 78%. Moreover, the “inhibition in the ability to aggregate following exposure to ADP” value in assay [4] (preincubated 25 μM thio-CHCl-AP4 A) is reported as 22-33%.
